Reference: patent US8734775B2, “Chemokine derived peptides that bind with chemokine receptor CXCR3 and uses for chronic wound and angiogenesis inhibition treatments” (University of Pittsburgh, priority 2011, dated 2014)

Legend:
[1] = tested on: HMEC-1 cells treated with CXCR3 siRNA; experiment: Tube formation in CXCR3 siRNA-treated cells; type: cell-based, human; conditions: CXCR3 knockdown; concentrations as in Experiment 3
Procedure: In the various experiments detailed below, unless otherwise noted, siRNA down regulation of CXCR3 was accomplished according to the following procedure. HMEC-1 cells were plated at 5.5×10^5 cells/60 mm dish and incubated overnight. The cells were 90-95% confluent. Cells were transfected with 4 μM siRNA (2 μM Sigma, 2 μM Santa Cruz) using Dharamacon #4 transfection reagent. The cells were incubated for 24 hours, and then placed in EGM-2MV media for 48 hours. The cells were then transfected again as indicated above. After 48 hours of incubation in EGM-2MV media the cells were then used for experimentation.
In the various experiments described below, to the extent not otherwise noted, CXCR3 siRNA transfection was preformed according to the procedure as previously described by Koh et al. (“Methods in Enzymology,” 2008, vol 443, p. 84), and summarized briefly as follows. HMEC-1 cells were plated in 6 well tissue culture plate at 4.0×10^5 cells/well in complete MCDB131 media and incubated overnight. The cells were ˜75% confluent. The media was removed and replaced with serum free Opti-Mem and incubated for 30 minutes. Dharmafect #4 was added to Opti-Mem to a final concentration of 2.5% (final volume […]) then incubated for 5 minutes at room temp. In parallel, CXCR3 siRNA was diluted in Opti-Mem to a final concentration of […] then incubated for 5 minutes at room temp. […]

[2] = tested on: VEGF-induced newly formed vessels; experiment: In vivo Matrigel plug assay, regression of newly formed vessels; set-up: species or system C57BL/6J mice; conditions: mice; injected into plug at days 10 and 12, examined day 17; IP-10 10 μg, IP-10dp 100 μg
Procedure: Further, to verify that IP-10dp is able to cause regression of newly formed vessels in vivo, parallel experiments were conducted on similar mice whereby GFR Matrigel supplemented with VEGF (200 ng/ml) was first injected into both the left and right side groins of mice (establishing a control location and a test location). After 10 days, the left side Matrigel plug was removed (control, n=6) and stained as above for histological examination, with the left side samples being used to establish the extent of new vessel invasion at 10 days. The remaining right side Matrigel plug in the mice was injected with either IP-10 (10 μg) or IP-10dp (100 μg) at days 10 and 12. Day 17, the right side Matrigel plugs were removed and stained for examination as above. FIG. 8D through FIG. 8G are color photographs of tissue samples, showing both 10× and 40× magnifications, taken from laboratory C57BL/6J mice. […]

PESKAIKNLLKAVSKEMSKRSP (IP-10dp; listed as Homo sapiens) [synthetic fragment of IP-10 comprising residues 78-98, the C-terminal α-helical domain]
formation of tubes in CXCR3 siRNA-treated cells [1]: did not show a significant difference
regression of vessels compared to saline control [2]: significant regression of vessels
